# Paper PMC9240354, “Pharmacokinetics, Pharmacodynamics and Antiviral Efficacy of the MEK Inhibitor Zapnometinib in Animal Models and in Humans” (Frontiers in Pharmacology, 2022)
# Like-named read-outs stand apart in the source and are kept apart here.
# Key:
# [1] = healthy volunteers, n = 8
# [2] = tolerability in mice; type: in vivo; settings: influenza virus infected mice, 25 mg/kg BID p.o.
# Description: Zapnometinib [2-(2-Chloro-4-Iodophenylamino)-N-3,4-Difluoro benzoic acid] (M = 409.56 g/mol) was synthesized at ChemCon GmbH (Freiburg, Germany). The doses used in this study were chosen based on previously unpublished preclinical data. […] The toxicity of zapnometinib was evaluated in single- and repeat-dose p. o. studies of up to 1-month duration in rats and dogs. The genetic toxicity of zapnometinib was investigated in compliance with ICH S2; a standard battery of genotoxicity studies was performed, comprising an Ames test, an in vitro chromosome aberration test in human lymphocytes and an in vivo micronucleus assay in rats. Thus, the doses used in this manuscript were safe (Koch-Heier et al., manuscript in preparation). For treatment of mice, 10.5 mg zapnometinib were dissolved in 5% (v/v) dimethyl sulfoxide (DMSO) (Carl Roth GmbH, Karlsruhe, Germany) and further diluted with 15% (v/v) Cremophor EL (Merck KGaA, Darmstadt, Germany), and 80% (v/v) phosphate-buffered saline (PBS) (Gibco, Carlsbad, CA, California, United States). Each mouse received a dose of 25 mg/kg zapnometinib in an application volume of 200 µL of the formulation by oral gavage. The first treatment was given on day 0 (1 h prior to influenza virus infection) and the second treatment 7 h post infection. […]
smiles,measurement,setting,value
"O=C(O)c1ccc(F)c(F)c1Nc1ccc(I)cc1Cl [zapnometinib, 2-(2-Chloro-4-Iodophenylamino)-N-3,4-Difluoro benzoic acid]",C24 h,[1]; single oral dose 100 mg,1000 ± 400 ng/mL
same,C24 h,[1]; single oral dose 300 mg,4000 ± 800 ng/mL
same,C24 h,[1]; single oral dose 600 mg,8000 ± 2000 ng/mL
same,C24 h,[1]; single oral dose 900 mg,16000 ± 6000 ng/mL
same,tolerability,[2],well tolerated and not toxic
